According to patent publication US20100120662A1, “Glucose uptake modulator and method for treating diabetes or diabetic complications” (POSTECH Foundation, priority 2005, published 2010):

Columns and labels:
[1] = test system: GLUT4; assay: GLUT4 translocation to the plasma membrane in 3T3-L1 adipocytes; type: cell-based; details: 20 μM, 10 min, plasma membrane fraction
Description: Membrane fractionation of adipocytes. For obtaining total membranes (TM) from 3T3-L1 adipocytes, cells were collected into 10 ml of ice-cold HES buffer (250 mM sucrose, 1 mM EDTA, 1 mM phenylmethylsulfonyl fluoride [PMSF], 1 μM pepstatin, 1 μM aprotinin, 1 μM leupeptin, and 20 mM HEPES, pH 7.4) and subsequently homogenized with 30 strokes in a glass Dounce homogenizer at 4° C. After centrifugation at 1,000 g for 5 min at 4° C. to remove unbroken cells, the supernatant was then centrifugated at 212,000 g for 90 min at 4° C. to yield a pellet of total cellular membranes. To obtain the plasma membrane (PM) subcellular fraction from 3T3-L1 adipocytes, differential ultracentrifugation was used as described previously (Perrini, S., et al., Diabetes 53, pp. 41-52, 2004).
Immunoblotting. For preparing total cell lysates, 3T3-L1 adipocytes were washed with Ca^2+/Mg^2+-free PBS and then lysed in the lysis buffer (50 mM HEPES, pH 7.2, 150 mM NaCl, 50 mM NaF, 1 mM Na3VO4, 10% glycerol, 1% Triton X-100). The lysates were centrifuged at 15,000 rpm for 15 min at 4° C. […]
FIGS. 3A and 3B show LPC stimulates GLUT4 translocation in 3T3-L1 adipocytes. […] In each experiment, the relative increase or decrease in the integrated density value (IDV) of GLUT4 after stimulation with compounds is calculated. B) Quantitation of relative increases is depicted. […]

[2] = test system: male ICR mice; assay: Acute blood glucose lowering in normal ICR mice after intravenous lysophospholipid; type: in vivo, mouse
Description: (§1) Animals. Male ICR mice were purchased from hyochang science (ROK). C57BLKSJ-db/db mice were purchased from SLC (Japan). After intravenous injection of LPC, blood glucose was measured regularly with a portable glucose meter (Gluco-Dr, ROK) after tail snipping. For measurement of serum insulin, blood samples of mice were determined with the insulin-RIA Kit (LINCO, Missouri). Insulin deficient mice were induced in male ICR mice by two consecutive daily intraperitoneal injection of STZ (200 mg/kg) dissolved in sodium citrate (pH 5.5). On the third day after the last STZ injection, acute glucose lowering effect was analyzed after intravenous injection of vehicle, LPC or insulin as described above.
(§2) Eight-week-old male mice were intravenously injected with PBS, insulin, LPC, or LPE. Blood glucose was monitored after dosing (0 to 120 min). […] All animals had free access to water. Animal care was in accordance with institutional guidelines. All data are shown as means±SE (n=5-6).*P<0.05.

[3] = test system: 3T3-L1 adipocytes; assay: [14C] 2-deoxy-D-glucose uptake in 3T3-L1 adipocytes; type: cell-based; details: for stimulation of glucose uptake: equimolar 20 μM, 10 min
Description: Cell culture: 3T3-L1 fibroblasts were grown to confluence in DMEM containing a high glucose concentration, 10% fetal bovine serum, 50 U of penicillin per ml, and 50 ug of streptomycin per ml and maintained in a 5% CO2 humidified atmosphere at 37° C. 3T3-L1 was induced to differentiate into adipocytes, as described previously (van den Berghe, N., et al., Mol Cell Biol 14, pp. 2372-2377, 1994).
Glucose uptake measurement. For measuring glucose uptake in 3T3-L1 adipocytes, cells were grown in serum-free DMEM for 16 h and then incubated in the absence or presence of insulin or lysophospholipids for the indicated times at 37° C. Uptake was measured by adding 1 μCi of [^14C] 2-deoxy-D-glucose and 3 mM 2-deoxy-D-glucose. After 10 min, the assay was terminated by two quick washes with ice-cold PBS. Cells were lysed in 0:5 ml of lysis buffer containing 0.5 N NaOH and 0.1% SDS. The cell lysates were used for liquid scintillation counting and nonspecific uptake was assayed in the presence of 10 μM cytochalasin B (van den Berghe, N., et al., Mol Cell Biol 14, pp. 2372-2377, 1994).
FIG. 2A to 2D show the effects of LPC on the glucose uptake in 3T3-L1 adipocytes. […] After these treatments, [^14C] 2-deoxy-D-glucose uptake was measured for 10 min as described in Material Methods. […] FIGS. 2C and 2D show relative [^14C] 2-deoxy-D-glucose uptake in 3T3-L1 adipocytes incubated in the absence (control) or presence of equimolar concentrations (20 μM) of myristoyl lysophosphatidylcholine (14:0 LPC), palmytoyl lysophosphatidylcholine (16:0 LPC), stearoyl lysophosphatidylcholine (18:0 LPC), palmytoyl lysophsophatidylethanolamine (16:0 LPE), palmytoyl lyso-phosphatidylinositol (16:0 LPI), palmytoyl lysophosphatidylglycerol (16:0 LPG) for 10 min. Values are mean±SE of three independent experiments performed in triplicate. *P<0.05 vs. basal.

[4] = test system: 3T3-L1 adipocytes; assay: Cytotoxicity of LPC concentration used on 3T3-L1 adipocytes; type: cell-based; details: 20 μM LPC
[5] = test system: STZ-treated insulin deficient ICR male mice; assay: Acute glucose lowering in streptozotocin (STZ)-treated insulin deficient ICR mice; type: in vivo, mouse; details: 30 μmol/kg i.v. LPC
Description: as §1, §2

[6] = test system: male ICR mice; assay: Serum insulin level in mice after single intravenous injection; type: in vivo, mouse
Description: as §1, §2

[7] = test system: C57BLKSJ-db/db mice; assay: Acute glucose lowering in insulin-resistant obese db/db mice; type: in vivo, mouse; details: injection of LPC
Description: as §1, §2

[8] = test system: IRS1 and AKT; assay: IRS1 and AKT phosphorylation in 3T3-L1 adipocytes (immunoblot); type: cell-based; details: LPC treatment of 3T3-L1 adipocytes
Description: Immunoblotting. For preparing total cell lysates, 3T3-L1 adipocytes were washed with Ca^2+/Mg^2+-free PBS and then lysed in the lysis buffer (50 mM HEPES, pH 7.2, 150 mM NaCl, 50 mM NaF, 1 mM Na3VO4, 10% glycerol, 1% Triton X-100). The lysates were centrifuged at 15,000 rpm for 15 min at 4° C. The proteins were denatured by boiling in laemmli sample buffer for 5 min at 95° C., separated by SDS-PAGE. SDS-gel was transferred to nitrocellulose membrane using Hoefer wet transfer system. Membranes were blocked in TTBS (20 mM Tris-HCl, pH 7.6, 150 mM NaCl, 0.05% Tween 20) containing 5% skimmed milk powder for 30 min and then incubated with antibodies for 3 hours. After washing membranes several times with TTBS, the blots were incubated with HRP (Horseradish peroxidase)-conjugated goat anti-rabbit for 1 hour. The blots were washed with TTBS and developed by ECL.

[9] = test system: C2C12 muscle cells; assay: Glucose uptake in C2C12 muscle cells (LPC); type: cell-based; details: data not shown
[10] = 3T3-L1 adipocytes, 10 min incubation

CCCCCCCCCCCCCCCC(=O)OC[C@@H](O)COP(=O)([O-])OCC[N+](C)(C)C [LPC, palmytoyl lysophosphatidylcholine]
PM content of GLUT4 proteins [1]: 180 % of basal | time to statistically significant fall in blood glucose ([2]; 15 or 30 μmol/kg i.v.): ≤ 30 min | blood glucose levels in ICR mice ([2]; 15 or 30 μmol/kg i.v., acute): statistically significant fall in blood glucose levels | blood glucose lowering, comparison of lysophospholipid species ([2]; doses equimolar to 30 μmol/kg i.v., ICR mice): significant effect on the blood glucose lowering | incubation time at which glucose uptake was maximally increased ([3]; 20 μM, 0 to 20 min): 10 min | concentration of initial statistically significant effect on glucose uptake [3, 10]: 1 µM | concentration of maximal effect on glucose uptake [3, 10]: 20 µM | time and dose dependence of glucose uptake ([3]; 3T3-L1 adipocytes, various concentrations): time- and dose-dependent increase in glucose uptake | stimulation of glucose uptake [3]: specifically stimulated glucose uptake | stimulation of glucose uptake ([3]; listed as palmytoyl LPC): stimulated glucose uptake | cytotoxicity [4]: not cytotoxic | blood glucose concentrations in STZ-treated insulin deficient mice [5]: significantly reduced blood glucose concentrations | change in blood insulin levels [6]: not due to changes in blood insulin levels | blood glucose in insulin-resistant obese db/db mice [7]: dropped to near normal levels | phosphorylation of IRS1 and AKT [8]: had no effects on phosphorylation of IRS1 and AKT | rate of glucose uptake in C2C12 muscle cells [9]: increased the rate of glucose uptake in a dose dependent manner
